Measurements as given in patent publication US4178442A, “Novel cinnamoyles piperazines and homopiperazines, the method of preparing them and their application in therapeutics” (Delalande S. A., priority 1977, dated 1979).
Read-outs that look alike come from different tables or passages of the source.

Tested on: anaesthetized dog
Experiment: Antiangorous activity on anaesthetized dog: consumption of oxygen in the left ventricule and cardiac effort (KATZ's index)
Assay type: in vivo
Conditions: for inhibition in vivo at 2.5 mg/kg / inhibition in vivo at […] / inhibition in vivo at 0.625 mg/kg / inhibition in vivo at 1.25 mg/kg: Canis lupus familiaris, iv; for inhibition in vivo at […]: 0.15 mg/kg i.v. slow perfusion
Method: The antiangorous activity was tested on an anaesthetized dog (sodium pentobarbital 30 mg/kg/i.v.).
The consumption of oxygen in the left ventricule was estimated by the product of the coronary venous flow and the coronary arteriovenous difference in oxygen (% volume).
The coronary venous flow was measured at the coronary venous sinus by means of a modified Morawitz cannula, introduced under radioscopic control.
The cardiac effort was estimated according to KATZ's index, by the product of the average arterial pressure and the cardiac frequency.
The cardiac frequency was estimated from the electrocardiogram recorded with D2 derivation.
It should be noted that the compounds tested were injected intravenously with slow perfusion.

[1] = 2.5 mg/kg i.v. slow perfusion, read-out: Diminution in consumption of O2
[2] = 2.5 mg/kg i.v. slow perfusion, read-out: Diminution in the cardiac effort (IK)
[3] = read-out: Diminution in consumption of O2
[4] = read-out: Diminution in the cardiac effort (IK)
[5] = 0.625 mg/kg i.v. slow perfusion
[6] = 0.625 mg/kg i.v. slow perfusion, read-out: Diminution in consumption of O2
[7] = 0.625 mg/kg i.v. slow perfusion, read-out: Diminution in the cardiac effort (IK)
[8] = 1.25 mg/kg i.v. slow perfusion, read-out: Diminution in consumption of O2
[9] = 1.25 mg/kg i.v. slow perfusion, read-out: Diminution in the cardiac effort (IK)

| Compound | Diminution in consumption of O2: in time (2.5 mg/kg i.v. slow perfusion) | Diminution in the cardiac effort (IK): in time (2.5 mg/kg i.v. slow perfusion) | inhibition in vivo at 2.5 mg/kg [1] | inhibition in vivo at 2.5 mg/kg [2] | also measured |
| --- | --- | --- | --- | --- | --- |
| COc1cc(/C=C/C(=O)N2CCN(CC(O)COc3ccc(C(C)=O)c4c3CCC4)CC2)cc(OC)c1OC (centres unmarked) [760 852] | 30 min | 45 min | 44% | 23% |  |
| COc1cc(/C=C/C(=O)N2CCN(CC(O)COc3ccc(Cl)cc3C)CC2)cc(OC)c1OC (centres unmarked) [770 966] |  | 30 min | 7% | 46% |  |
| CNC(=O)Nc1ccc(OCC(O)CN2CCN(C(=O)/C=C/c3cc(OC)c(OC)c(OC)c3)CC2)c2ccccc12 (centres unmarked) [771 031] |  |  |  |  | inhibition in vivo at […] [3]: 20%; inhibition in vivo at […] [4]: 25% |
| COc1cc(/C=C/C(=O)N2CCN(CC(O)COc3ccc(NC(C)=O)c4ccccc34)CC2)cc(OC)c1OC (centres unmarked) [771 036] |  | 15 min | 15% | 25% |  |
| COc1cc(/C=C/C(=O)N2CCN(CC(O)COc3ccc(NC(=O)N4CCOCC4)c4c3OCCO4)CC2)cc(OC)c1OC (centres unmarked) [771 149] |  |  |  |  | inhibition in vivo at […] [3]: 12%; inhibition in vivo at […] [4]: 14% |
| CNC(=O)Nc1ccc(OCC(O)CN2CCN(C(=O)/C=C/c3cc(OC)c(OC)c(OC)c3)CC2)c2c1CCC2 (centres unmarked) [771 153] | 23 min | 40 min | 31% | 63% |  |
| CNC(=O)c1ccc(OCCCN2CCN(C(=O)/C=C/c3cc(OC)c(OC)c(OC)c3)CC2)c2c1OCCO2 [771 163] |  |  |  |  | Diminution in consumption of O2: in time [5]: 30 min; Diminution in the cardiac effort (IK): in time [5]: 40 min; inhibition in vivo at 0.625 mg/kg [6]: 61%; inhibition in vivo at 0.625 mg/kg [7]: 20% |
| COc1cc(/C=C/C(=O)N2CCN(CCCOc3ccc(NC(C)=O)c4c3OCCO4)CC2)cc(OC)c1OC [771 172] | 15 min | 23 min | 25% | 29% |  |
| COc1cc(C#N)ccc1OCC(O)CN1CCN(C(=O)/C=C/c2cc(OC)c(OC)c(OC)c2)CC1 (centres unmarked) [771 281] | 30 min | 30 min | 23% | 44% |  |
| COc1cc(/C=C/C(=O)N2CCN(CC(O)COc3ccc(NC(C)=O)c4c3CCC4)CC2)cc(OC)c1OC (centres unmarked) [771 306] |  |  |  |  | Diminution in consumption of O2: in time (1.25 mg/kg i.v. slow perfusion): 15 min; Diminution in the cardiac effort (IK): in time (1.25 mg/kg i.v. slow perfusion): 30 min; inhibition in vivo at 1.25 mg/kg [8]: 58%; inhibition in vivo at 1.25 mg/kg [9]: 38% |
| COc1cc(/C=C/C(=O)N2CCN(CC(O)COc3ccc(C(C)=O)c4ccccc34)CC2)cc(OC)c1OC (centres unmarked) [771 315] |  |  |  |  | Diminution in the cardiac effort (IK): in time (1.25 mg/kg i.v. slow perfusion): 15 min; inhibition in vivo at 1.25 mg/kg [8]: 11%; inhibition in vivo at 1.25 mg/kg [9]: 29% |
| COc1cc(/C=C/C(=O)N2CCN(CC(O)COc3ccc(C(=O)c4ccccc4)cc3)CC2)cc(OC)c1OC (centres unmarked) [771 318] | 60 min | 15 min | 63% | 31% |  |
| COc1cc(/C=C/C(=O)N2CCN(CC(O)COc3ccc(OC)c4c3OCCO4)CC2)cc(OC)c1OC (centres unmarked) [780 009] |  |  |  |  | Diminution in consumption of O2: in time (1.25 mg/kg i.v. slow perfusion): 35 min; Diminution in the cardiac effort (IK): in time (1.25 mg/kg i.v. slow perfusion): 30 min; inhibition in vivo at 1.25 mg/kg [8]: 48%; inhibition in vivo at 1.25 mg/kg [9]: 20% |
| COc1cc(/C=C/C(=O)N2CCN(CC(O)COc3ccc(C(C)=O)c4c3CCCC4)CC2)cc(OC)c1OC (centres unmarked) [780 128] | 23 min | 23 min | 57% | 17% |  |
| CNC(=O)Nc1ccc(OCC(O)CN2CCN(C(=O)/C=C/c3cc(OC)c(OC)c(OC)c3)CC2)c(Cl)c1 (centres unmarked) [780 189] | 30 min | 45 min | 63% | 30% |  |
| COc1ccc(NC(=O)Nc2ccc(OCC(O)CN3CCN(C(=O)/C=C/c4cc(OC)c(OC)c(OC)c4)CC3)c3c2OCCO3)cc1 (centres unmarked) [780 223] | 90 min | 90 min | 62% | 35% |  |
| COc1cc(/C=C/C(=O)N2CCN(CC(O)COc3ccc(C(C)=O)c4c3OCCCO4)CC2)cc(OC)c1OC (centres unmarked) [780 241] |  |  |  |  | inhibition in vivo at […] [3]: 30%; inhibition in vivo at […] [4]: 13% |
| CCCc1ccc(OCC(O)CN2CCN(C(=O)/C=C/c3cc(OC)c(OC)c(OC)c3)CC2)cc1 (centres unmarked) [780 267] | 30 min |  | 27% | 8% |  |

| Compound | Diminution in consumption of O2: in time (2.5 mg/kg i.v. slow perfusion) | Diminution in the cardiac effort (IK): in time (2.5 mg/kg i.v. slow perfusion) | inhibition in vivo at 2.5 mg/kg [1] | inhibition in vivo at 2.5 mg/kg [2] | also measured |
| --- | --- | --- | --- | --- | --- |
| COc1cc(C(C)=O)ccc1OCC(O)CN1CCCN(C(=O)/C=C/c2cc(OC)c(OC)c(OC)c2)CC1 (centres unmarked) [780 269] | 30 min | 60 min | 34% | 40% |  |
| COc1cc(/C=C/C(=O)N2CCCN(CC(O)COc3ccc(NC(C)=O)c4c3OCCO4)CC2)cc(OC)c1OC (centres unmarked) [780 272] | 90 min | 90 min | 40% | 51% |  |
| CNC(=O)Nc1cc(Cl)c(OCC(O)CN2CCN(C(=O)/C=C/c3cc(OC)c(OC)c(OC)c3)CC2)c(Cl)c1 (centres unmarked) [780 292] | 90 min | 45 min | 59% | 34% |  |
| CCCCCOC(=O)c1ccc(OCC(O)CN2CCN(C(=O)/C=C/c3cc(OC)c(OC)c(OC)c3)CC2)c2c1OCCO2 (centres unmarked) [780 301] |  |  |  |  | inhibition in vivo at […] [3]: 40%; inhibition in vivo at […] [4]: 28% |
| CCCC(=O)c1ccc(OCC(O)CN2CCN(C(=O)/C=C/c3cc(OC)c(OC)c(OC)c3)CC2)cc1 (centres unmarked) [780 302] | 30 min | 30 min | 46% | 14% |  |
| COc1cc(C=O)ccc1OCC(O)CN1CCN(C(=O)/C=C/c2cc(OC)c(OC)c(OC)c2)CC1 (centres unmarked) [780 329] | 30 min | 30 min | 21% | 13% |  |
| COc1cc(/C=C/C(=O)N2CCN(CC(O)COc3ccc(C(=O)OC4CCCCC4)c4c3OCCO4)CC2)cc(OC)c1OC (centres unmarked) [780 333] |  |  |  |  | inhibition in vivo at […] [3]: 51%; inhibition in vivo at […] [4]: 21% |
| COc1cc(/C=C/C(=O)N2CCN(CC(O)COc3c(Cl)cc(C(C)=O)cc3Cl)CC2)cc(OC)c1OC (centres unmarked) [780 339] | 45 min | 40 min | 74% | 42% |  |
| COc1cc(/C=C/C(=O)N2CCN(CC(O)COc3ccc(NC(C)=O)c4c3OCO4)CC2)cc(OC)c1OC (centres unmarked) [780 346] |  |  |  |  | inhibition in vivo at […] [3]: 43%; inhibition in vivo at […] [4]: 2% |
| COc1cc(/C=C/C(=O)N2CCN(CC(O)COc3ccc(C(C)=O)cc3F)CC2)cc(OC)c1OC (centres unmarked) [780 353] | 15 min | 15 min | 46% | 16% |  |
| CNC(=O)Nc1cc(OC)c(OCC(O)CN2CCN(C(=O)/C=C/c3cc(OC)c(OC)c(OC)c3)CC2)c(OC)c1 (centres unmarked) [780 357] | 15 min | 15 min | 43% | 21% |  |
| COc1cc(/C=C/C(=O)N2CCN(CC(O)COc3c(OC)cc(C(C)=O)cc3OC)CC2)cc(OC)c1OC (centres unmarked) [780 359] |  |  |  |  | Diminution in consumption of O2: in time [5]: 45 min; Diminution in the cardiac effort (IK): in time [5]: 30 min; inhibition in vivo at 0.625 mg/kg [6]: 60%; inhibition in vivo at 0.625 mg/kg [7]: 32% |
| CCOC(=O)c1cc(OC)c(OCC(O)CN2CCN(C(=O)/C=C/c3cc(OC)c(OC)c(OC)c3)CC2)c(OC)c1 (centres unmarked) [780 361] | 30 min | 45 min | 68% | 38% |  |
| COc1cc(/C=C/C(=O)N2CCN(CC(O)COc3ccc(C(=O)OC(C)(C)C)c4c3OCCO4)CC2)cc(OC)c1OC (centres unmarked) [780 369] |  |  |  |  | Diminution in consumption of O2: in time [5]: 15 min; Diminution in the cardiac effort (IK): in time [5]: 15 min; inhibition in vivo at 0.625 mg/kg [6]: 37%; inhibition in vivo at 0.625 mg/kg [7]: 4% |
| COc1cc(/C=C/C(=O)N2CCN(CC(O)COc3ccc(C(=O)OC(C)C)c4c3OCCO4)CC2)cc(OC)c1OC (centres unmarked) [780 373] | 30 min | 30 min | 66% | 25% |  |
| CNC(=O)Nc1ccc(OCC(O)CN2CCCN(C(=O)/C=C/c3cc(OC)c(OC)c(OC)c3)CC2)c2c1OCCO2 (centres unmarked) [780 374] | 30 min | 15 min | 39% | 31% |  |
| COc1cc(/C=C/C(=O)N2CCN(CC(O)CSc3ccc(C(C)=O)c4c3OCCO4)CC2)cc(OC)c1OC (centres unmarked) [780 384] |  |  |  |  | inhibition in vivo at […] [3]: 43%; inhibition in vivo at […] [4]: 25% |
